# Assay results taken from patent US20070021434A1, “NON-NUCLEOSIDE ANTI-HEPACIVIRUS AGENTS AND USES THEREOF” (Migenix Inc., priority 2005, published 2007).
# Like-named read-outs stand apart in the source and are kept apart here.
# Tests used:
# [1] = molecular target: T1, NS5B (Replizyme, UK), HCV genotype 1b Δ21 RdRp (UniProt P26663); type: biochemical, hepatitis C virus
# T1 construct: other: Replizyme enzyme
# Procedure: (§1) An RNA-dependant RNA polymerase assay was performed in a 96-well round bottom polypropylene plates (Costar) with a 50 μl reaction volume containing 20 mM HEPES pH 7.2-7.5 (Gibco), 1 mM DTT (Sigma), 0.4 mM MnCl2 (Sigma), 70 nM RNA template-primer PolyA (Amersham)-Oligo dT(20) biotin labelled (Roche), 20 μM UTP (Roche), 5U RNasin (Promega), 50 mM NaCl (Ambion), 4 μM DIG-11-UTP (Roche), test compound at desired concentration, 5% DMSO and 50-80 ng NS5B (Replizyme(V, UK) or 200-500 ng of recombinant NS5BA21 HCV RdRp enzyme. After 1 hour incubation at 30° C, the reaction is stopped by the addition of 5 μl 0.5 M EDTA and the solution is transferred to a streptavidin coated 96 well plate (Roche). Standard ELISA detection using Anti DIG-POD antibody (Roche) and BM Blue substrate is applied before measuring Abs at 450 nm. An illustration of the assay can be found in FIG. 1.
# [2] = molecular target: recombinant NS5BΔ21 HCV RdRp enzyme (genotype 1b, produced in-house) (UniProt P26663); test: RdRp assay with ELISA, recombinant in-house enzyme; type: biochemical, hepatitis C virus; conditions: read-out: Experimental IC50, Recombinant
# Procedure: as §1
# HCV RdRp = molecular target: T2, HCV RdRp (Hepatitis C virus genotype 1b, UniProt P26663); conditions: literature value; read-out: Published IC50; cited from earlier work
# T2 construct: The HCV encoded RNA-dependent RNA polymerase (HCV RdRp), also known as non-structural protein 5B (NS 5B)
# [3] = system: NS5B (Replizyme, UK), HCV genotype 1b Δ21 RdRp; type: biochemical, hepatitis C virus
# Procedure: as §1
# [4] = read-out: Experimental IC50, Replizyme; Replizyme enzyme
# T2 sequence (P26663 2420-3010): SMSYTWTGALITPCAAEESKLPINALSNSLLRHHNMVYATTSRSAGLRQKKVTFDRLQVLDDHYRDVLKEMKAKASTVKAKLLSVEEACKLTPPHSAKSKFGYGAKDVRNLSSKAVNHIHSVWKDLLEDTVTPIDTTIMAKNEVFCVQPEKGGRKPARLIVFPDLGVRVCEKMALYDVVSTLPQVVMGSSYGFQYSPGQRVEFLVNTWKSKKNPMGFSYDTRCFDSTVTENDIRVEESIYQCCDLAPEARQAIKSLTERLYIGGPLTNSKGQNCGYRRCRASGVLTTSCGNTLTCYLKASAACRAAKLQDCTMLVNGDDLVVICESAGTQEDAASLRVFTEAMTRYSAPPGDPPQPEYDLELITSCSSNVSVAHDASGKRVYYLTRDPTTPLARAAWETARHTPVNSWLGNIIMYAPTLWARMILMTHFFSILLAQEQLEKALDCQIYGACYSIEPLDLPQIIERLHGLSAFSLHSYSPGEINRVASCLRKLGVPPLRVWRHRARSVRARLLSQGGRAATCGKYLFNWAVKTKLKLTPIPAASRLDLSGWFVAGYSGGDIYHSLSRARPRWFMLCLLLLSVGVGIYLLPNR
SMILES,"IC50 [1, 4] [nM]",IC50 [2] [nM],IC50 (HCV RdRp) [nM],times less inhibition with the Replizyme enzyme than with the prepared enzyme [3],"IC50 ([1]; Replizyme enzyme; read-out: Experimental IC50, Replizyme) [nM]"
CCCCn1c(=O)c(C2=NS(=O)(=O)c3ccccc3N2)c(O)c2ccccc21,1000,1800,240,,
O=C(O)c1ccc2c(c1)nc(-c1ccccn1)n2C1CCCCC1,69000,3500,4360,about 20,
O=C(O)COc1ccc2[nH]cc(C[C@H](NC(=O)c3ccc4c(c3)nc(-c3ccoc3)n4C3CCCCC3)C(=O)O)c2c1,1300,60,1150,about 20,
O=c1ccn([C@@H]2O[C@H](COP(=O)(O)OP(=O)(O)OP(=O)(O)O)C[C@H]2O)c(=O)[nH]1 [3′-dUTP],,,,,130
CC(C)Cn1c(=O)c(C2=Nc3ccccc3S(=O)(=O)N2)c(O)c2ccccc21,2300,2800,340,,
